Like-named read-outs stand apart in the source and are kept apart here.
What was measured:
[1] = cited from earlier work
[2] = pH dependence of fluorescence of fluorescein; assay type: physicochemical
Description: A preferred fluor is fluorescein.

[3] = system: most of the cell types tested
Description: Within 15 min after washing the dye away from the exterior of the cells, the intracellular pool of the dye is pumped out, either by an organic anion pump mechanism or by diffusion.
The cell staining assay utilized various cell lines and included P388D1 (mouse macrophage), HEPG2 (human liver), CV1 (monkey epithelial), ccd50sk (untransformed human fibroblast), Rat2 (rat fibroblast), MDCK (kidney cells), L6 (rat myoblast), L cells (mouse fibroblast), HeLa (human adenocarcinoma), skov3 (human ovarian adenocarcinoma), and skbr3 (human breast adenocarcinoma) cells. Other cell lines that were used included Jurkat (human T cell), H9 (human T cell), NIH3T3 (mouse fibroblast), HL60 (human T cell), and H4 (rat liver). All cell lines are commercially available from the American Type Culture Collection, Rockville, Md.
Cells were grown on 25 mm-#1 coverslips in media containing 25 mM HEPES, pH 7.3, (which helps maintain pH on the microscope) without phenol red (which can lead to high background fluorescence when working with living cells). Coverslips were used so that the high numerical aperture oil-immersion lenses on the microscope could be used. The coverslips were mounted onto "viewing chambers": 6-well petri dishes which have 22 mm holes drilled into the bottom. […]

[4] = known values of standard compounds used for the standard curve (Veith et al.)

Nc1ccccc1O [2-aminophenol]
Log Poct ([1]; octanol/water): 0.62

Nc1cccc(O)c1 [3-aminophenol]
Log Poct [1, 4]: 0.17

Nc1ccccc1 [aniline]
Log Poct [1, 4]: 0.9

O=C1OC2(c3ccc(O)cc3Oc3cc(O)ccc32)c2ccccc21 [fluorescein]
net charge ([2]; pH 5.0): net neutral charge | fluorescence at pH 5.0 relative to pH 7.5 ([2]; pH 5.0 vs pH 7.5): greater than an order of magnitude less fluorescent | net charge ([2]; pH 7.5): net negative charge | time in which the intracellular pool of the dye is pumped out [3]: ≤ 15 min | cell permeation of dye ([3]; not told): permeant to most of the cell types tested

Nc1ccccc1[N+](=O)[O-] [o-nitroaniline]
Log Poct [1, 4]: 1.44

Source: patent US5763208A, “Oligonucleotides and their analogs capable of passive cell membrane permeation” (Gilead Sciences, Inc., priority 1996, dated 1998)
